In US20030018071A1, “Method and compositions for treating fibrotic diseases” (priority 2002, published 2003):
In brackets after ≈: the same amount, converted by molar mass.

Columns and labels:
[1] = test system: human fetal lung fibroblasts; assay: Fibroblast chemotaxis toward fibronectin (Boyden blindwell chamber); assay type: cell-based
Experimental: Since the activity of a PDE4 inhibitor should be dependent on endogenous cyclic AMP levels, a study was designed to determine if endogenous prostaglandin production rendered cells susceptible to the effects of Ariflo. To accomplish this, human fetal lung fibroblasts were cultured and, after achieving confluence, were incubated for 60 minutes with and without indomethacin (2×10^−6 M) to inhibit cyclooxygenase. Fibroblasts were then trypsinized and placed in the upper portion of a Boyden blindwell chemotaxis chamber. Fibronectin, 20 μg/ml, was placed in the lower portion of the chamber as the chemoattractant. Indomethacin (2×10^−6 M) was added to the upper side of the chemotaxis chamber. […] In three separate experiments, the concentration of Ariflo required to inhibit chemotaxis by 50% was 4.9±2.5 μg/ml. In the presence of indomethacin, Ariflo inhibited chemotaxis only at the highest concentration tested 10 μg/ml reducing the response to 58.7±21.0% of control (p<005) compared to indomethacin. […] Since cyclooxygenase activity and prostaglandin production can be modulated by a variety of mediators present in an inflammatory milieu, fibroblasts in such a setting may be particularly sensitive to the inhibitory effects of Ariflo. Such an effect has therapeutic value in fibrotic disorders.

[2] = developed as an antidepressant; cited from earlier work

**Q.** What does the source list for `COc1ccc([C@]2(C#N)CC[C@@H](C(=O)O)CC2)cc1OC1CCCC1` [Ariflo, cis 4-cyano-4-(3-cyclopentyloxy-4-methoxyphenyl)cyclohexan-1-carboxylic acid]?
**A.** activity at 10 µg/mL ([1]; Homo sapiens, Fibroblast, Ariflo 10 μg/ml in the presence of indomethacin 2×10^−6 M, compared to indomethacin, read-out: chemotaxis response, % of control): 58.7 ± 21%; IC50 ([1]; Homo sapiens, Fibroblast, control fibroblasts (no indomethacin), fibronectin 20 μg/ml as chemoattractant, three separate experiments, read-out: concentration required to inhibit chemotaxis by 50%): 4.9 ± 2.5 µg/mL (≈ 14.3 µM); effect on chemotaxis (in words) ([1]; added to control fibroblasts): inhibited chemotaxis in a concentration dependent manner

**Q.** For `COc1ccc2c(c1)c(CC(=O)O)c(C)n2C(=O)c1ccc(Cl)cc1` [Indomethacin, indomethacin, reference compound], which “chemotaxis, % compared to control” value ([1]; indomethacin alone 2×10^−6 M, fibronectin 20 μg/ml) is on record?
**A.** Its value is 159±33%.

**Q.** With `COc1ccc(C2CNC(=O)C2)cc1OC1CCCC1` (centres unmarked) [rolipram] as the compound, how does the “side effects in clinical studies” value [2] read?
**A.** The value was “has psychotropic activity and produces gastrointestinal effects, e.g., pyrosis, nausea and emesis”.
